# Experimental data published in patent US20250059198A1, “BRM DEGRADING COMPOUNDS AND ASSOCIATED METHODS OF USE” (Arvinas Operations, Inc., priority 2021, published 2025).
# Target: T1, BRM (Homo sapiens, UniProt P51531)
# T1 construct: Western Blot Screen of BRM Degradation in SW1573 Cells; endogenous in cells; host or cells: SW1573 cells
# Assay: BRM degradation (Dmax and DC50) in SW1573 cells, Western blot screen / In-Cell Western screen
# Assay type: cell-based
# Settings: overnight (18-20 hours) treatment; for Dmax: read-out: Dmax (%)** (% degraded)
# Experimental: (§1) To assess BRM degradation (Dmax and DC50) cells were seeded at 8000/well in 96-well black/clear-bottom plates in 180 μL DMEM growth media (containing 1% pen-strep, 1% HEPES and 10% FBS) per well. Plates were incubated overnight to allow adhesion. The next morning cells were treated by adding 20 μL of 10× target compound concentration (1% DMSO) to appropriate wells and returned to incubator for overnight (18-20 hours). The final DMSO concentration was 0.1%.
# For lysing, adherent cells were washed once with 100 μL of DPBS. Cells were lysed in 40 μL of 1×RIPA+HALT protease inhibitor on ice for 10 minutes and frozen until use at −80° C. Thawed lysates were cleaned by filtration in 1.2 µm filter plates, or alternatively, were spun clean at 2300 g at 4° C. for 30 minutes.
# For blotting, for each Western sample 30 μL of lysate was added to 10 μL of 4× LDS sample buffer, then denatured at 95° C. for 5 minutes in the thermal cycler and placed on ice. Samples were loaded on 4-15% Tris/Glycine gels and run for 25 minutes at 250 constant volts in 1× Tris/Glycine buffer with 4 μL of ladder and 12 μL of each sample loaded for each blot. Protein was transferred from gels to NC with BioRad Turbo dry-transfer unit with the Turbo/midi default program. All blots were rinsed with ddH2O and blocked for 1 hour at room temperature in 5% BSA in TBST (0.1%) on rocker. Blots were exposed to primary antibody in 5% BSA in TBST (0.1%) overnight at 4° C. on rocker (1:1000 for BRM (Cell Signaling Tech. cat #11966) and 1:2000 for alpha-tubulin (Cell Signaling Tech. cat #3873), a control protein. Blot was washed with TBST (0.1%) three times for 5 minutes on rocker at room temperature. Secondary antibody was added, and blots were incubated on a room temperature rocker for 1 hour with 1:18,000 anti-rabbit-HRP and/or anti-mouse-HRP in 5% BSA in TBST (0.1%). Blots were washed three times in TBST (0.1%) for 5 minutes at room temperature on the rocker. Signal was developed with Femto Maximum Sensitivity substrate for 4 minutes and blots read on ChemiDoc™.
# as §1, with “DC50),” for “DC50)”, “10×” for “10× target”, “compound” for “compound concentration”
# For processing, the plates were removed from incubator, the media was removed, and immediately 200 μL of cold (4° C.) DPBS was added to all wells. DPBS was then removed, and 50 μL of 4% paraformaldehyde (PFA) in DPBS (4° C.) was added to all wells, and the plates were incubated at room temperature for 20 minutes. PFA was then removed, and 200 μL of TBS-T containing 0.5% Triton X-100 was added to all wells, and the plates were incubated at room temperature for 30 minutes. TBS-T containing 0.5% Triton X-100 was then removed, and 50 μL of Li-Cor blocking solution was added, and the plates were incubated at room temperature for a minimum of one hour. The blocking solution was removed, and 50 μL of Li-Cor blocking solution containing primary antibody cocktail was added (1:1000 for BRM (Cell Signaling Tech. cat #11966) and 1:2000 for alpha-tubulin (Sigma cat #T6074), a control protein. Plates were then placed in cold room until the next day.
# The next day plates were washed three times with TBS-T, 200 μL per well. Fifty […] of secondary antibody cocktail in LI-COR blocking solution (anti-rabbit_800 nm and anti-mouse_680 nm) was added to all wells (diluted 1:5000). The plates were incubated at room temperature for at least one hour while protected from light. The plates were washed twice with TBS-T, 200 μL per well.
# To read each plate TBS-T was removed, and each plate was inverted tapped on a paper towel. […]
# T1 sequence (P51531 whole entry): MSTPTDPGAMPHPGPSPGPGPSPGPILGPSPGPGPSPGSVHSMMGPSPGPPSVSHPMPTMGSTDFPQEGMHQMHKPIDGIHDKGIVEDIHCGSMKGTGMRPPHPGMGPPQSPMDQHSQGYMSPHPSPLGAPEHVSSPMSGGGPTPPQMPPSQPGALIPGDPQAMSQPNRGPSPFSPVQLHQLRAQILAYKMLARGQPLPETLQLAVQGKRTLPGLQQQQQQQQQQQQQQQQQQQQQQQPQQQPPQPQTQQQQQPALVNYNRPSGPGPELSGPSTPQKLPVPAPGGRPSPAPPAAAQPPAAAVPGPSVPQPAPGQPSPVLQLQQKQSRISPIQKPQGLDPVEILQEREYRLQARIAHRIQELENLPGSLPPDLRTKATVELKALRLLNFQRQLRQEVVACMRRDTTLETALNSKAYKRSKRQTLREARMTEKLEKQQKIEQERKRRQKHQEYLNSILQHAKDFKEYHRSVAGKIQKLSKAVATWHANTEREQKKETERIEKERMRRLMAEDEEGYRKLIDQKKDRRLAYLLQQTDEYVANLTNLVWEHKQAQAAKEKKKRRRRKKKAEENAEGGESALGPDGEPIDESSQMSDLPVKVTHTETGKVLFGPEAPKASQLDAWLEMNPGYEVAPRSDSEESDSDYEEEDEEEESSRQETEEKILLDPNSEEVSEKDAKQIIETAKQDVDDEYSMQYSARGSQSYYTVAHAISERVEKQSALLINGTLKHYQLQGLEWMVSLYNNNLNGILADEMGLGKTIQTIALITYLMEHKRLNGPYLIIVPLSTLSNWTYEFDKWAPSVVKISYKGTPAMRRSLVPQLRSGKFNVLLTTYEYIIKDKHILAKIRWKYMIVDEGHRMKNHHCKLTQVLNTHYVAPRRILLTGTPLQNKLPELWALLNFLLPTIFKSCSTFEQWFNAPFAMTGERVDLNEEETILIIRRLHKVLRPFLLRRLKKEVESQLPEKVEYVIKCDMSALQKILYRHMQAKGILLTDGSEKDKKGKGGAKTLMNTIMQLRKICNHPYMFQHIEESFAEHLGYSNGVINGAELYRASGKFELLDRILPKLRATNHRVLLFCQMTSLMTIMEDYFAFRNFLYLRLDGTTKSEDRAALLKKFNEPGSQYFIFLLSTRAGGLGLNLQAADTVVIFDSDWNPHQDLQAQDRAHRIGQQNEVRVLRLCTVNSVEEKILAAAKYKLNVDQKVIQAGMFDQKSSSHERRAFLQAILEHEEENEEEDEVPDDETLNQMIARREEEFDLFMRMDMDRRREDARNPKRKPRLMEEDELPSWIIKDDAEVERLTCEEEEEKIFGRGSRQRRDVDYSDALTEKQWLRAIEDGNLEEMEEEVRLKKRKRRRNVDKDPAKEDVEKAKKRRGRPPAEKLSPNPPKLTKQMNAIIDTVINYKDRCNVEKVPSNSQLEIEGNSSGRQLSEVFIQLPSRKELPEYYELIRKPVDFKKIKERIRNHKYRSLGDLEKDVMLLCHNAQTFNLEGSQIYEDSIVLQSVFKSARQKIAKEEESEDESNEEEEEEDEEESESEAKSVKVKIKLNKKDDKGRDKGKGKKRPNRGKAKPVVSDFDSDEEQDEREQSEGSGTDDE
Compound,DC50,Dmax
"CC(C)[C@H](C(=O)N1C[C@H](O)C[C@H]1C(=O)N[C@@H](C)c1ccc(-c2ccnn2C)cc1)c1cc(N2CCC(OC3CCN(CC4CC(N5CCC([C@@H](C)n6cc(C#Cc7cc(-c8ccccc8O)nnc7N)cn6)CC5)C4)CC3)CC2)no1 (stereo partly drawn) [Compound 109, (2S,4R)-1-[(2S)-2-{3-[4-({1-[(3-{4-[(1R)-1-(4-{2-[3-amino-6-(2-hydroxyphenyl)pyridazin-4-yl]ethynyl}-1H-pyrazol-1-yl)ethyl]piperidin-1-yl}cyclobutyl)methyl]piperidin-4-yl}oxy)piperidin-1-yl]-1,2-oxazol-5-yl}-3-methylbutanoyl]-4-hydroxy-N-[(1S)-1-[4-(1-methyl-1H-pyrazol-5-yl)phenyl]ethyl]pyrrolidine-2-carboxamide]",≥ 30 nM,–
"CC(C)[C@@H](C(=O)N1C[C@H](O)C[C@H]1C(=O)N[C@@H](C)c1ccc(-c2scnc2C#CCOCCOCCOCCOc2cc(N3C4CCC3CN(c3cc(-c5ccccc5O)nnc3N)C4)ccn2)cc1)N1Cc2ccccc2C1=O [Compound 72, (2S,4R)-N-[(1S)-1-[4-(4-{3-[2-(2-{2-[(4-{3-[3-amino-6-(2-hydroxyphenyl)pyridazin-4-yl]-3,8-diazabicyclo[3.2.1]octan-8-yl}pyridin-2-yl)oxy]ethoxy}ethoxy)ethoxy]prop-1-yn-1-yl}-1,3-thiazol-5-yl)phenyl]ethyl]-4-hydroxy-1-[(2S)-3-methyl-2-(1-oxo-2,3-dihydro-1H-isoindol-2-yl)butanoyl]pyrrolidine-2-carboxamide]",≥ 30 nM,–
"CC(C)[C@@H](C(=O)N1C[C@H](O)C[C@H]1C(=O)N[C@@H](C)c1ccc(-c2c(F)cnn2C)cc1)c1cc(N2CCC(CN3CCC(O[C@H]4C[C@H](Oc5cc(N6CCN(c7cc(-c8ccccc8O)nnc7N)CC6)ccn5)C4)CC3)CC2)no1 [Compound 40, (2S,4R)-N-[(1S)-1-[4-(4-fluoro-1-methyl-1H-pyrazol-5-yl)phenyl]ethyl]-4-hydroxy-1-[(2R)-3-methyl-2-{3-[4-({4-[(1r,3r)-3-[(4-{4-[3-amino-6-(2-hydroxyphenyl)pyridazin-4-yl]piperazin-1-yl}pyridin-2-yl)oxy]cyclobutoxy]piperidin-1-yl}methyl)piperidin-1-yl]-1,2-oxazol-5-yl}butanoyl]pyrrolidine-2-carboxamide]",< 2.5 nM,> 75%
"Cc1ncsc1-c1ccc([C@H](C)NC(=O)[C@@H]2C[C@@H](O)CN2C(=O)[C@@H](c2cc(N3CCC(CN4CCC5(CCC5N5CCO[C@H](CN6C7CCC6CN(c6cc(-c8ccccc8O)nnc6N)C7)C5)CC4)CC3)no2)C(C)C)cc1 (stereo partly drawn) [Compound 143, (2S,4R)-1-[(2R)-2-{3-[4-({1-[(2S)-2-({3-[3-amino-6-(2-hydroxyphenyl)pyridazin-4-yl]-3,8-diazabicyclo[3.2.1]octan-8-yl}methyl)morpholin-4-yl]-7-azaspiro[3.5]nonan-7-yl}methyl)piperidin-1-yl]-1,2-oxazol-5-yl}-3-methylbutanoyl]-4-hydroxy-N-[(1S)-1-[4-(4-methyl-1,3-thiazol-5-yl)phenyl]ethyl]pyrrolidine-2-carboxamide]",< 2.5 nM,> 75%
"CC(C)[C@H](C(=O)N1C[C@H](O)C[C@H]1C(=O)N[C@@H](C)c1ccc(C#N)cc1)c1cc(N2CCN(C(=O)N3CCC(O[C@H]4C[C@H](Oc5cc(N6C7CCC6CN(c6cc(-c8ccccc8O)nnc6N)C7)ccn5)C4)CC3)CC2)no1 [Compound 139, (2S,4R)-N-[(1S)-1-(4-cyanophenyl)ethyl]-4-hydroxy-1-[(2S)-3-methyl-2-[3-(4-{4-[(1r,3r)-3-[(4-{3-[3-amino-6-(2-hydroxyphenyl)pyridazin-4-yl]-3,8-diazabicyclo[3.2.1]octan-8-yl}pyridin-2-yl)oxy]cyclobutoxy]piperidine-1-carbonyl}piperazin-1-yl)-1,2-oxazol-5-yl]butanoyl]pyrrolidine-2-carboxamide]",≥ 30 nM,–
"Cc1ncsc1-c1ccc([C@H](C)NC(=O)[C@@H]2C[C@@H](O)CN2C(=O)[C@@H](c2cc(N3CCC(CN4CCC(O[C@H]5C[C@H](N6CCC([C@@H](C)c7cnn(-c8cc(-c9ccccc9O)nnc8N)c7)CC6)C5)CC4)CC3)no2)C(C)C)cc1 [Compound 74, (2S,4R)-4-hydroxy-N-[(1S)-1-[4-(4-methyl-1,3-thiazol-5-yl)phenyl]ethyl]-1-[(2R)-3-methyl-2-{3-[4-({4-[(1r,3r)-3-{4-[(1R)-1-{1-[3-amino-6-(2-hydroxyphenyl)pyridazin-4-yl]-1H-pyrazol-4-yl}ethyl]piperidin-- yl}cyclobutoxy]piperidin-1-yl}methyl)piperidin-1-yl]-1,2-oxazol-5-yl}butanoyl]pyrrolidine-2-carboxamide]",< 2.5 nM,> 75%
"CC(C)[C@@H](C(=O)N1C[C@H](O)C[C@H]1C(=O)N[C@@H](C)c1ccc(-c2ccnn2C)cc1)c1cc(N2CCC(CN3CCC(CN4CCC5(CC4)CC(Oc4cc(N6C7CCC6CN(c6cc(-c8ccccc8O)nnc6N)C7)ccn4)C5)CC3)CC2)no1 [Compound 39, (2S,4R)-1-[(2R)-2-[3-(4-{[4-({2-[(4-{3-[3-amino-6-(2-hydroxyphenyl)pyridazin-4-yl]-3,8-diazabicyclo[3.2.1]octan-8-yl}pyridin-2-yl)oxy]-7-azaspiro[3.5]nonan-7-yl}methyl)piperidin-1-yl]methyl}piperidin-1-yl)-1,2-oxazol-5-yl]-3-methylbutanoyl]-4-hydroxy-N-[(1S)-1-[4-(1-methyl-1H-pyrazol-5-yl)phenyl]ethyl]pyrrolidine-2-carboxamide]",< 2.5 nM,> 75%
"CC(C)[C@@H](C(=O)N1C[C@H](O)C[C@H]1C(=O)N[C@@H](C)c1ccc(C#N)cc1)c1cc(N2CCC(OCCN3CCC(Oc4cc(N5C6CCC5CN(c5cc(-c7ccccc7O)nnc5N)C6)ccn4)CC3)CC2)no1 [Compound 151, (2S,4R)-1-[(2R)-2-{3-[4-(2-{4-[(4-{3-[3-amino-6-(2-hydroxyphenyl)pyridazin-4-yl]-3,8-diazabicyclo[3.2.1]octan-8-yl}pyridin-2-yl)oxy]piperidin-1-yl}ethoxy)piperidin-1-yl]-1,2-oxazol-5-yl}-3-methylbutanoyl]-N-[(1S)-1-(4-cyanophenyl)ethyl]-4-hydroxypyrrolidine-2-carboxamide]",2.5 to 10 nM,> 75%
"Cc1ncsc1-c1ccc([C@H](C)NC(=O)[C@@H]2C[C@@H](O)CN2C(=O)[C@H](c2cc(N3CCC(n4cnc(CN5CCC(O[C@H]6C[C@H](Oc7cc(N8C9CCC8CN(c8cc(-c%10ccccc%10O)nnc8N)C9)ccn7)C6)CC5)c4)CC3)no2)C(C)C)cc1 [Compound 12, (2S,4R)-4-hydroxy-N-[(1S)-1-[4-(4-methyl-1,3-thiazol-5-yl)phenyl]ethyl]-1-[(2S)-3-methyl-2-(3-{4-[4-({4-[(1r,3r)-3-[(4-{3-[3-amino-6-(2-hydroxyphenyl)pyridazin-4-yl]-3,8-diazabicyclo[3.2.1]octan-8-yl}pyridin-2-yl)oxy]cyclobutoxy]piperidin-1-yl}methyl)-1H-imidazol-1-yl]piperidin-1-yl}-1,2-oxazol-5-yl)butanoyl]pyrrolidine-2-carboxamide]",≥ 30 nM,–
